Experimental data from ChEMBL document CHEMBL2034968, “Discovery of novel urea-based hepatitis C protease inhibitors with high potency against protease-inhibitor-resistant mutants” (J Med Chem, 2012).

Tests used:
Hepatitis C virus [1] = assay: Antiviral activity against Hepatitis C virus subtype 1b harboring protease D168V mutant by transient replicon assay; type: functional, organism-based, Hepacivirus hominis; conditions: genotype 1b
Hepatitis C virus [2] = assay: Antiviral activity against Hepatitis C virus subtype 1b harboring protease A156V mutant by transient replicon assay; type: functional, organism-based, Hepacivirus hominis; conditions: genotype 1b
Hepatitis C virus [3] = assay: Antiviral activity against wild type Hepatitis C virus subtype 1b by transient replicon assay; type: functional, organism-based, Hepacivirus hominis; conditions: genotype 1b
[4] = Inhibition of HCV 1a protease 1a domain; design: species or system Hepacivirus hominis
Hepatitis C virus [5] = assay: Antiviral activity against Hepatitis C virus subtype 1b harboring protease A156S mutant by transient replicon assay; type: functional, organism-based, Hepacivirus hominis; conditions: genotype 1b
Hepatitis C virus [6] = assay: Antiviral activity against Hepatitis C virus subtype 1a by stable replicon assay; type: functional, organism-based, Hepacivirus hominis
Hepatitis C virus [7] = assay: Antiviral activity against Hepatitis C virus subtype 1b by stable replicon assay; type: functional, organism-based, Hepacivirus hominis; conditions: genotype 1b
Hepatitis C virus [8] = assay: Antiviral activity against Hepatitis C virus subtype 1b harboring protease D168A mutant by transient replicon assay; type: functional, organism-based, Hepacivirus hominis; conditions: genotype 1b
Hepatitis C virus [9] = assay: Antiviral activity against Hepatitis C virus subtype 1b harboring protease A156T mutant by transient replicon assay; type: functional, organism-based, Hepacivirus hominis; conditions: genotype 1b
Hepatitis C virus [10] = assay: Antiviral activity against Hepatitis C virus subtype 1b harboring protease R155K mutant by transient replicon assay; type: functional, organism-based, Hepacivirus hominis; conditions: genotype 1b

Compound	EC50 (Hepatitis C virus [1])	EC50 (Hepatitis C virus [2])	EC50 (Hepatitis C virus [3])	IC50 [4]	EC50 (Hepatitis C virus [5])	EC50 (Hepatitis C virus [6])	EC50 (Hepatitis C virus [7])	EC50 (Hepatitis C virus [8])	EC50 (Hepatitis C virus [9])	EC50 (Hepatitis C virus [10])
COc1ccc2c(O[C@@H]3C[C@H]4C(=O)N[C@]5(C(=O)NS(=O)(=O)C6CC6)C[C@H]5/C=C\CCCCC[C@H](NC(=O)NCc5ccc6c(c5)B(O)OC6)C(=O)N4C3)cc(-c3nc(C(C)C)cs3)nc2c1C	144 nM	9 nM	0.9 nM	2 nM	0.2 nM	3.4 nM	0.8 nM	249 nM	7 nM	49 nM
COc1ccc2c(O[C@@H]3C[C@H]4C(=O)N[C@]5(C(=O)NS(=O)(=O)C6CC6)C[C@H]5/C=C\CCCCC[C@H](NC(=O)NCc5ccc(CO)c(O)c5)C(=O)N4C3)cc(-c3nc(C(C)C)cs3)nc2c1C				0.5 nM		15.5 nM	1.1 nM			
COc1ccc2c(O[C@@H]3C[C@H]4C(=O)N[C@]5(C(=O)NS(=O)(=O)C6CC6)C[C@H]5/C=C\CCCCC[C@H](NC(N)=O)C(=O)N4C3)cc(-c3nc(C(C)C)cs3)nc2c1C	2260 nM	16 nM	0.4 nM	2 nM		1.8 nM	0.5 nM	873 nM	6 nM	66 nM
COc1ccc2c(O[C@@H]3C[C@H]4C(=O)N[C@]5(C(=O)NS(=O)(=O)C6CC6)C[C@H]5/C=C\CCCCC[C@H](NC(=O)N(C)C)C(=O)N4C3)cc(-c3nc(C(C)C)cs3)nc2c1C	57 nM	5 nM	0.04 nM	2 nM		0.3 nM	0.1 nM	36 nM	1 nM	10 nM
CCN(CC)C(=O)N[C@H]1CCCCC/C=C\[C@@H]2C[C@@]2(C(=O)NS(=O)(=O)C2CC2)NC(=O)[C@@H]2C[C@@H](Oc3cc(-c4nc(C(C)C)cs4)nc4c(C)c(OC)ccc34)CN2C1=O	131 nM	8 nM	0.1 nM	1 nM	0.5 nM	0.9 nM	0.7 nM	56 nM	2 nM	15 nM
COc1ccc2c(O[C@@H]3C[C@H]4C(=O)N[C@]5(C(=O)NS(=O)(=O)C6CC6)C[C@H]5/C=C\CCCCC[C@H](NC(=O)N5CCOCC5)C(=O)N4C3)cc(-c3nc(C(C)C)cs3)nc2c1C	33 nM	2 nM	0.01 nM	2 nM	0.03 nM	0.3 nM	0.5 nM	17 nM	0.2 nM	4 nM
COc1ccc2c(O[C@@H]3C[C@H]4C(=O)N[C@]5(C(=O)NS(=O)(=O)C6CC6)C[C@H]5/C=C\CCCCC[C@H](NC(=O)N5CCCC5)C(=O)N4C3)cc(-c3nc(C(C)C)cs3)nc2c1C	200 nM	9 nM	0.1 nM	4 nM	0.2 nM	0.4 nM	0.4 nM	86 nM	2 nM	15 nM
COc1ccc2c(O[C@@H]3C[C@H]4C(=O)N[C@]5(C(=O)NS(=O)(=O)C6CC6)C[C@H]5/C=C\CCCCC[C@H](NC(=O)N5CCC(C)(C)C5)C(=O)N4C3)cc(-c3nc(C(C)C)cs3)nc2c1C	138 nM	11 nM	0.1 nM	2 nM		0.6 nM	0.5 nM	28 nM	2 nM	17 nM
COc1ccc2c(O[C@@H]3C[C@H]4C(=O)N[C@]5(C(=O)NS(=O)(=O)C6CC6)C[C@H]5/C=C\CCCCC[C@H](NC(=O)N5CCC(O)CC5)C(=O)N4C3)cc(-c3nc(C(C)C)cs3)nc2c1C	154 nM	9 nM	0.1 nM	2 nM		0.6 nM	0.3 nM	42 nM	2 nM	7 nM
COc1ccc2c(O[C@@H]3C[C@H]4C(=O)N[C@]5(C(=O)NS(=O)(=O)C6CC6)C[C@H]5/C=C\CCCCC[C@H](NC(=O)N5CCC(CO)CC5)C(=O)N4C3)cc(-c3nc(C(C)C)cs3)nc2c1C	141 nM	9 nM	0.1 nM	1 nM		0.7 nM	0.3 nM	47 nM	2 nM	14 nM
COc1ccc2c(O[C@@H]3C[C@H]4C(=O)N[C@]5(C(=O)NS(=O)(=O)C6CC6)C[C@H]5/C=C\CCCCC[C@H](NC(=O)N5CCC(CC(N)=O)CC5)C(=O)N4C3)cc(-c3nc(C(C)C)cs3)nc2c1C		10 nM	0.2 nM	2 nM	0.1 nM	5.6 nM	1.5 nM	431 nM	3 nM	65 nM
COc1ccc2c(O[C@@H]3C[C@H]4C(=O)N[C@]5(C(=O)NS(=O)(=O)C6CC6)C[C@H]5/C=C\CCCCC[C@H](NC(=O)N5CCC(CC(=O)O)CC5)C(=O)N4C3)cc(-c3nc(C(C)C)cs3)nc2c1C	161 nM	3 nM	0.1 nM	0.9 nM	0.2 nM	2.2 nM	0.8 nM	7 nM	1 nM	21 nM
COc1ccc2c(O[C@@H]3C[C@H]4C(=O)N[C@]5(C(=O)NS(=O)(=O)C6CC6)C[C@H]5/C=C\CCCCC[C@H](NC(=O)N5CCC(c6ccccc6)CC5)C(=O)N4C3)cc(-c3nc(C(C)C)cs3)nc2c1C	386 nM	30 nM	0.2 nM	7 nM		1.6 nM	0.9 nM	182 nM	5 nM	69 nM
COc1ccc2c(O[C@@H]3C[C@H]4C(=O)N[C@]5(C(=O)NS(=O)(=O)C6CC6)C[C@H]5/C=C\CCCCC[C@H](NC(=O)N5CCC(N6CCCC6)CC5)C(=O)N4C3)cc(-c3nc(C(C)C)cs3)nc2c1C		98 nM	0.5 nM	2 nM	1.9 nM	0.6 nM	0.5 nM	1620 nM	12 nM	102 nM
COc1ccc2c(O[C@@H]3C[C@H]4C(=O)N[C@]5(C(=O)NS(=O)(=O)C6CC6)C[C@H]5/C=C\CCCCC[C@H](NC(=O)N5CCN(C6CCCC6)CC5)C(=O)N4C3)cc(-c3nc(C(C)C)cs3)nc2c1C	477 nM	32 nM	0.1 nM	2 nM		0.5 nM	0.3 nM	169 nM	5 nM	60 nM
CC(C)(C)NC(=O)N[C@H](C(=O)N1C[C@H]2[C@@H]([C@H]1C(=O)NC(CC1CCC1)C(=O)C(N)=O)C2(C)C)C(C)(C)C (some centres undefined) [BOCEPREVIR]	40 nM		400 nM						12000 nM	700 nM
CC[C@@H]1C[C@]1(NC(=O)[C@@H]1C[C@@H]2CN1C(=O)[C@H](C(C)(C)C)NC(=O)OCC(C)(C)CCCCc1cccc3c1CN(C3)C(=O)O2)C(=O)NS(=O)(=O)C1CC1 [VANIPREVIR]			1.6 nM							
